This note sets out measurements from patent US10058562B2, “Methods of treatment of diseases” (Ampio Pharmaceuticals, Inc., priority 2012, dated 2018).

Like-named read-outs stand apart in the source and are kept apart here. Bounds are passed on as bounds.

For data set [1], the system named is human retinal endothelial cells. As to the kind of experiment: Actin stress fiber formation, VEGF (Example 10). The settings on record: for change of VEGF stress fiber pattern: 30 minutes before VEGF 25 ng/ml. Format: cell-based. The protocol: . […] To counter-stain for nuclei, 100 μl of a 3 μM DAPI (4,6-diamidino-2-phenylindole, dilactate (Invitrogen)) solution was added to each well. After 5 minutes, the cells were washed two times with 100 μl PBS.

In data set [2] the test system is human renal glomerular microvascular endothelial cells. As to the kind of experiment: Actin stress fiber formation (Example 13). The note with it: for F-actin staining, agent alone: TNFα 1 ng/ml or S1P 1 μM alone, over the time course; for F-actin staining, danazol alone: 1 μM.
Data set [3] relates to human retinal endothelial cells. As to the kind of experiment: Actin stress fiber formation (Example 13). The note with it: for F-actin staining, agent alone: TNFα 1 ng/ml or S1P 1 μM alone, over the time course; for F-actin staining, danazol alone: 1 μM.
Data set [4] shares this test system. As to the kind of experiment: Actin stress fiber formation, TNFα (Example 9). The settings on record: 30 minutes.
Protocol: Then, the medium was removed and replaced with 200 μl of IMDM medium supplemented with 0.1% fetal bovine serum (all from Lonza), and the cells were cultured under these growth factor and serum starved conditions for one hour to suppress actin polymerization. […] Immediately following addition of these compounds, TNFα (final concentration of 50 ng/ml) was added. […] All wells were then washed two times with 100 μl PBS. The cells were permeabilized using a 0.1% Triton X-100 in PBS for 5 minutes. All wells were then washed two times with 100 μl PBS, and 50 μl of a 1:40 dilution of rhodamine-phalloidin (Invitrogen) in PBS was added to the cells to stain for F-actin and left on the cells for 20 minutes at room temperature. All wells were then washed two times with 100 μl PBS.
In data set [5] the test system is patients with diabetic macular edema (DME). The class given is in vivo, human. The source says: Included were patients with DME and a central subfield retinal thickness of 300 μm or greater. A total of 34 patients constituted the safety set population. The efficacy evaluable population (n=23) was composed of patients from the safety set who completed 80% or greater of study medications at 4 weeks of treatment. The primary endpoint was change in central subfield retinal thickness from baseline to 12 weeks of treatment, and the secondary endpoints were change from baseline in retinal volume and Early Treatment Diabetic Retinopathy Study (ETDRS) best corrected visual acuity (BCVA) at week 12 of treatment. […] All treatments were administered orally twice a day.

Data set [6] concerns Primary human umbilical vein endothelial cells (HUVECs). As to the kind of experiment: HUVEC cell proliferation (Celltiter 96 AQueous One). Format: cell-based. The protocol: Primary human umbilical vein endothelial cells (HUVECs) and EGM-2 growth medium were obtained from Cambrex (Walkersville, Md.). The cells were passaged in medium supplemented with 2% fetal calf serum (FCS) in tissue culture flasks at 37° C. and 5% CO2. Subculturing was performed using trypsin when 60-80% confluence was obtained as specified by the supplier.
Cryopreserved ampoules of passage 2 HUVECs were thawed and plated in 96 well tissue culture plates at 5,000 cells/cm^2. […] . In short, medium was aspirated from each well and the cells were washed with 200 μl […] (HBSS) from Cambrex warmed to 37° C. 100 μl diluted celltiter solution (15 μl stock+85 μl EGM-2 containing 0.1% FCS) were added to each well and incubated for an additional 4 hours. Optical density was determined by microplate reader using a 530 nm filter after blank subtraction and data presented as OD±standard deviation. The final concentration of ethanol in the wells was less then 0.2% and had no effect on cell proliferation or viability.
All data are presented as representative experiments done in triplicate. […] P<0.05 was considered statistically significant.

The next data set concerns HUVECs. Put plainly: HUVEC tube formation assay. The note with it: 18 hours.
In data set [7] the test system is human retinal endothelial cells. As to the kind of experiment: ECIS resistance (Example 14). The settings on record: for persistence of ECIS increase: danazol 1.0 μM, S1P 1 μM, alone or in combination.
Protocol: (§1) Electrical resistance was measured using the electric cell-substrate impedance sensing (ECIS) system (ECISZθ, obtained from Applied Biophysics) with 8-well multiple electrode plates (8W10E). […] The fibronectin solution was removed, and 400 μl of EGM-2 culture medium (Lonza) was added to each well. The plates were connected to the ECISZθ system and were electrically stabilized. The EGM-2 medium was aspirated and replaced with 200 μl of EGM-2 culture medium containing 100,000 cells per well. […] The EGM-2 medium was aspirated and replaced with 400 μl of fresh EGM-2 culture medium per well. […] Concentrated solutions of the test compounds in HBSS were prepared and placed in the incubator to equilibrate. […] ECIS (resistance) was monitored for 90 hours.
In data set [8] the test system is human renal glomerular microvascular endothelial cells. Put plainly: ECIS resistance (Example 14). The settings on record: danazol 1 μM alone.
Protocol: as §1
Data set [9] shares this test system. Put plainly: ECIS resistance (Example 15). The note with it: 1 μM.
Protocol: Electrical resistance was measured using the electric cell-substrate impedance sensing (ECIS) system (ECISZθ, obtained from Applied Biophysics) with 8-well multiple electrode plates (8W10E). […] The fibronectin solution was removed, and 200 μl of EGM-2 culture medium (Lonza) was added to each well. The plates were connected to the ECISZθ system and were electrically stabilized. The EGM-2 medium was aspirated and replaced with 200 μl of EGM-2 culture medium containing 40,000 passage 6 cells per well. […] The EGM-2 medium was aspirated and replaced with 200 μl of fresh EGM-2 culture medium per well. […] The EGM-2 medium was aspirated and replaced with 200 μl of fresh EGM-2 culture medium without dexamethasone per well. […] Finally, the EGM-2 medium was aspirated and replaced with 200 μl of fresh EGM-2 culture medium without dexamethasone per well. […] Concentrated solutions of the test compounds in HBSS were prepared and placed in the incubator to equilibrate. […] ECIS (resistance) was monitored for 90 hours.
Data set [10] has as its system human retinal endothelial cells. Put plainly: TER of endothelial cell monolayers (Example 6). The settings on record: 1.0 μM.
Protocol: (§2) Assays were also performed in the same manner using passage 8 human brain endothelial cells and passage 8 human umbilical vein endothelial cells.
(§3) An initial TER measurement was taken for each insert using EVOM^2 voltohmmeter connected to an STX100 electrode (both from World Precision Instruments). […] All data are presented as TER measurements/cm^2 of insert with TER of blank inserts subtracted.
In data set [11] the test system is human brain endothelial cells. Put plainly: TER of endothelial cell monolayers (Example 6). The note with it: 1.0 μM.
Protocol: as §2, §3
In data set [12] the test system is human umbilical vein endothelial cells. Put plainly: TER of endothelial cell monolayers (Example 6). The settings on record: 1.0 μM.
Protocol: as §2, §3
In data set [13] the test system is Retinal endothelial cells. Put plainly: F-actin (phalloidin) staining of endothelial cells. The note with it: barrier-enhancing concentrations.
Description: Retinal endothelial cells stained with rhodamine conjugated phalloidin.
A further data set has as its system endothelial cells. As to the kind of experiment: TEER across endothelial cell monolayers on transwell inserts. The note with it: barrier-enhancing concentrations, within minutes of exposure.

For the molecule VEGF, the “stress fiber development, stimulus alone” value in data set [1] (VEGF 25 ng/ml, 30 minutes) was “strong stress fiber development”.

TNFα: the “F-actin staining, agent alone” value in data set [2] and in data set [3] was “stress fibers were seen at all times” in each case. The “stress fiber development, stimulus alone” value in data set [4] (TNFα 50 ng/ml) is “led to strong stress fiber development with intensely staining focal points”.

On to `C#C[C@]1(O)CC[C@H]2[C@@H]3CCC4=Cc5oncc5C[C@]4(C)[C@H]3CC[C@@]21C` [Danazol, 17α-pregna-2,4-dien-20-yno[2,3-d]-isoxazol-17β-ol], for which the “effect on retinal thickness versus baseline BMI” value in data set [5] (10 mg dose) is recorded as “became less significant with increasing baseline BMI”; in data set [5] (30 mg danazol dose), “became more significant with increasing baseline BMI”. For the same molecule, the “patients with a clinically relevant change in OCT after 12 weeks of treatment” value in data set [5] (30 mg danazol, placebo 2 of 7 patients) is recorded as 6/7. In addition, in [5] (15-mg group, P=0.05), the “Retinal volume compared with placebo” value is “decreased”. Moreover, the “subjects with a significant decrease in retinal thickness (more than 11%) at 12 weeks” value in data set [5] (DME patients, oral 15-mg dose (15 mg twice daily), 6 of 7 patients, placebo 29%) amounted to 86%. Besides, the “subjects with BCVA improvement of at least 1 category (ICD-9-CM vision loss)” value in data set [5] (all patients treated with danazol, placebo 14%) is 47%. Further, in data set [5] (in vivo), the ocular hypertension entry is on record as “No ocular hypertension was detected”. Besides, the “treatment-related adverse events (number)” value in data set [5] (in vivo) is reported as “Three”. Moreover, the “OD (celltiter proliferation assay)” value in data set [6] (24 hours, 10 μM, nil 0.414±0.06) is 0.288±0.037; in data set [6] (24 hours, 100 μM, nil 0.414±0.06), 0.162±0.017; in data set [6] (48 hours, 1 μM, nil 0.629±0.095), 0.378±0.037; in data set [6] (48 hours, 10 μM, nil 0.629±0.095) it was 0.241±0.012; in data set [6] (48 hours, 100 μM, nil 0.629±0.095), 0.19±0.033; in [6] (72 hours, 0.1 μM, nil 1.113±0.054), 0.798±0.037. In addition, the “OD (celltiter proliferation assay)” value in data set [6] (72 hours, 1 μM, nil 1.113±0.054) is 0.484±0.022; in data set [6] (72 hours, 10 μM, nil 1.113±0.054), 0.229±0.016; in data set [6] (72 hours, 100 μM, nil 1.113±0.054) it was 0.156±0.018. Also, the “change of VEGF stress fiber pattern” value in [1] (0.1 μM) was “made the stress fibers less pronounced and some diffuse staining appeared”; in data set [1] (1.0 μM), “showed fewer thick stress fibers, but focal points were seen on contact surfaces”; in data set [1] (10.0 μM), “showed strong stress fiber development with focal points”. Also, the F-actin staining pattern entry was “there was no longer any diffuse staining, and stress fiber development and focal points were seen” in data set [1] (10.0 μM, no VEGF); “stress fibers with multiple focal points were detected” in [4] (10.0 μM). In addition, the “effect on tube formation” value in the data set with HUVECs (1 μM) and in the data set on HUVECs (10 μM) was “no effect” each time. Besides, in data set [7] (1.0 μM), the “start of ECIS increase compared to untreated cells, after treatment” value was in the range of 1.5 to 2.0 h. In addition, the “persistence of ECIS increase” value was 5 h in data set [7] and “about 90 hours” in [9]. Also, in [8], the “period of greatest ECIS increase” value lay within 60 to 90 h. In [9] (medium without dexamethasone), the “start of ECIS increase compared to untreated cells” value is “about 3 hours”. In addition, the “F-actin staining, danazol alone” value in data set [2] (15 minutes) is “perinuclear staining”; in data set [2] (3 hours) it was “diffuse staining throughout the cells with ruffled edges on many of the cells”; in data set [2] (24 hours), “staining similar to untreated controls”; in data set [3] (15 minutes), “perinuclear staining”; in data set [3] (3 hours), “diffuse staining throughout the cells with ruffled edges on many of the cells”; in data set [3] (24 hours) it was “staining similar to untreated controls”. Further, the TER was 21.7 in data set [10] (0 Hours, per cm^2 of insert, blank subtracted, None 32.3); 132.3 in data set [10] (24 Hours, None 96.0); 182.3 in data set [10] (48 Hours, None 144.4); 217.7 in data set [10] (72 Hours, None 148.0); 234.8 in data set [10] (144 Hours, None 219.7); 32.3 in data set [11] (0 Hours, per cm^2 of insert, blank subtracted, None 41.4). Besides, the TER was determined as 139.9 in [11] (24 Hours, None 115.7); 188.4 in data set [11] (48 Hours, None 176.3); 149.5 in data set [11] (72 Hours, None 154.0); 125.8 in data set [11] (144 Hours, None 151.5); 70.2 in data set [12] (0 Hours, per cm^2 of insert, blank subtracted, None 82.3); 246.0 in [12] (24 Hours, None 217.2). The TER in [12] (48 Hours, None 276.3) was 364.1; in [12] (72 Hours, None 226.8), 270.7; in [12] (144 Hours, None 227.3), 286.4. For the same molecule, the “stress fiber development with TNFα” value in data set [4] (TNFα 50 ng/ml, danazol 0.1 μM or 10 μM, LY294002 10 μM) is listed as “decreased the number of cells exhibiting stress fiber development with TNFα”. Also, the F-actin staining result in data set [13] (within minutes of exposure) is “f-actin cortical ring formation”. Also, in data set [13] (stimulation with TNF-a or thrombin), the “stress fiber formation upon stimulation” value was “counteracted the formation of stress fibers”. Also, the “endothelial barrier function (TEER)” value in the data set with endothelial cells is on record as “increases in endothelial barrier function”.

For `CCCCCCCCCCCCC/C=C/[C@@H](O)[C@@H](N)COP(=O)(O)O` [S1P, sphingosine-1 phosphate], the “start of ECIS increase compared to untreated cells, after treatment” value in data set [7] (S1P 1 μM alone) is no more than 0.25 h. Besides, the “persistence of ECIS increase” value in data set [7] is reported as “about 3 hours”. Further, the “F-actin staining, agent alone” value in data set [2] and in data set [3] was “showed actin cortical rings” in each case.
